Laboratory results taken from patent publication US10053471B2, “Azabenzimidazole derivatives” (Boehringer Ingelheim International GmbH, priority 2015, dated 2018).

Target: AMPK α1β1γ1 (Homo sapiens (Human), UniProt Q13131+Q9Y478)
Assay: in vitro AMPK activation assay (ADP Glo Luminescence Kinase test)
Format: biochemical
Conditions: for Emax: maximal achievable activation in the tested concentration range, percent of control max (positive control without test substance = 100%), read-out: AMPK α1β1γ1 PoCmax; for EC50: recombinant human AMPK alpha1/beta1/gamma1, ADP-Glo luminescence read-out
Description: Recombinant human AMPK (containing subunits alpha1, beta1 and gamma1) was obtained from a baculovirus expression system. The 3 subunits were expressed together, affinity-purified via a GST-tag fused to the alpha 1 subunit and deep-frozen in storage buffer (50 mM Tris-HCl pH 8, 300 mM NaCl, 1 mM TCEP and 10% glycerol) at −80° C. until use. The activity of the AMPK protein was determined using the ADP Glo® Luminescence Kinase test (Promega; V9103X). In this homogeneous test the amount of ADP formed by the kinase reaction is quantified by a luciferin-luciferase reaction using luminescence as read-out. The luminescence signal obtained correlates with the amount of ADP resulting from the kinase reaction and thus correlates with the activity of the protein kinase.
The test compounds were dissolved in 100% DMSO at a concentration of 10 mM and in a first step diluted in DMSO to a concentration of 5 mM, followed by serial dilution steps in 100% DMSO. Dilution factor and number of dilution steps may vary. Typically 8 different concentrations by 1:5 dilutions were prepared, further dilutions of the substances were carried out with test buffer (20 mM Hepes (pH 7.0), 15 mM MgCl2, 0.025% BSA, 0.01% Brij 35) until a concentration was reached which was 5 times above the final test concentration. 2 μl aliquots of these dilutions were transferred into a 384-well Optiplate (Perkin Elmer, #6007290). Typically the start concentration for serial dilutions in the assay is 10 μM. Typically AMPK was diluted to 25 μg/ml in the test buffer and 4 μl of this dilution were used in the kinase test (final concentration of AMPK is 10 μg/ml in a total volume of 10 μl for the kinase reaction). Kinase concentrations may vary depending on activity of the preparation batches. After 10 minutes incubation at room temperature 4 μl of a mix containing 2.5 μM substrate (H-His-Met-Arg-Ser-Ala-Met-Ser-Gly-Leu-His-Leu-Val-Lys-Arg-Arg-OH Trifluoroacetate salt/HMRSAMSGLHLVKRR from Bachem, Cat. No. H5938) and 75 μM ATP in test buffer were added to each well and the incubation was continued for 60 minutes at room temperature.
Positive controls are the reaction mixtures that contain no test substance; negative controls (blanks) are reaction mixtures that contain no AMPK enzyme.
After 60 minutes, 10 μl ADP-Glo® solution (ADP-Glo Reagent #V912B Promega) (heated to room temperature) were added to each well and incubation was continued for 40 minutes. Then 20 μl Kinase detection mix (Detection Buffer #V913B Promega; Kinase Detection Substrate #V914B Promega) were added and incubated for additional 40 minutes at room temperature.
All incubations were done in sealed plates in the dark.
The plates were read with an Envision Luminescence Reader (Perkin-Elmer).
Data Evaluation and Calculation:
The output file of the reader is a csv file that contains the well number and measured RLU. For data evaluation and calculation, the measurement of the negative control was set as 0% control and the measurement of the positive control was set as 100% control. Based on these values the % value for the measurement of each substance concentration was calculated using Assay Explorer software (Accelrys). Activating compounds achieve % of control values above 100%. The IC50 values were calculated from the % control values using Assay Explorer software. Calculation: [y=(a−d)/(1+(x/c)^b)+d], a=low value, d=high value; x=conc M; c=IC50 M; b=hill; y=% ctrl. The maximal achievable activation of a compound in the tested concentration range is reported as percent of control max (PoCmax).

Chain of AMPK α1β1γ1 (Q13131 whole entry): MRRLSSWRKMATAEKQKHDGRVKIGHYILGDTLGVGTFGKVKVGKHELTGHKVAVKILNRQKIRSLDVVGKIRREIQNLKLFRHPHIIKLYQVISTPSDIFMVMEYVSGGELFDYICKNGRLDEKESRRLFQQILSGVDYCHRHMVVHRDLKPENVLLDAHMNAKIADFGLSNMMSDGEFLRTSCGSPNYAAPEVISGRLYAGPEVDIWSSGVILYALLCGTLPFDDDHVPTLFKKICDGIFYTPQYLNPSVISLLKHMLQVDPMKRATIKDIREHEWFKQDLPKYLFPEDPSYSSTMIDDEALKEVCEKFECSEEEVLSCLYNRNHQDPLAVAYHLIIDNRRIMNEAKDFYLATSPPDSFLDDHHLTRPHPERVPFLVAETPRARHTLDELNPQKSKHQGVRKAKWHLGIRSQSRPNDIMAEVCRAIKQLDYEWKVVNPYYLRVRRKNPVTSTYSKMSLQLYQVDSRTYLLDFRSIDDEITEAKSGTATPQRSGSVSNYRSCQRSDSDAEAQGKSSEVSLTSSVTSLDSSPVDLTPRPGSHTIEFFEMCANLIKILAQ
Chain of AMPK α1β1γ1 (Q9Y478 whole entry): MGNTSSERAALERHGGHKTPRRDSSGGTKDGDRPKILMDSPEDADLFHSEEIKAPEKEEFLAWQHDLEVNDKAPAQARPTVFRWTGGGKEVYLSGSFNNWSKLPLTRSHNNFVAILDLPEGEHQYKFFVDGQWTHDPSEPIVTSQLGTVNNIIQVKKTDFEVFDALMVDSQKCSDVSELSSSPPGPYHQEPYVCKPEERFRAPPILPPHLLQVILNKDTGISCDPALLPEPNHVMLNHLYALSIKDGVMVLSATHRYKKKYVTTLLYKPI
Chain of AMPK α1β1γ1 (P54619 whole entry partner): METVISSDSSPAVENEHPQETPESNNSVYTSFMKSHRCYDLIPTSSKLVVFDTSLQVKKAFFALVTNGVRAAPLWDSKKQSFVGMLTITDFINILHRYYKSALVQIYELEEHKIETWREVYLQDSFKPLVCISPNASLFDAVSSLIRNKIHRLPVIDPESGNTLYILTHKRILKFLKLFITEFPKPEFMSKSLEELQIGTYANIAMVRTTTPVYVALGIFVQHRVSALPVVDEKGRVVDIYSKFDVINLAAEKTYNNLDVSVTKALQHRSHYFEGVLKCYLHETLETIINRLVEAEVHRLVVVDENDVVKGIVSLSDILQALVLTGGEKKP

| Emax [%] | EC50 [µM] | Compound |
| --- | --- | --- |
| 421 | 3.56 | CS(C)(=O)=Nc1c(F)cc(-c2ccc(-c3nc4[nH]c(O[C@@H]5CO[C@H]6[C@@H]5OC[C@H]6O)nc4cc3Cl)cc2)cc1F [Example 4, ({4-[4-(2-{[(3R,3aR,6R,6aR)-6-Hydroxy-hexahydrofuro[3,2-b]furan-3-yl]oxy}-6-chloro-3H-imidazo[4,5-b]pyridin-5-yl)phenyl]-2,6-difluorophenyl}imino)dimethyl-λ^6-sulfanone] |
| 480 | 0.302 | CS(C)(=O)=Nc1cc(F)c(-c2ccc(-c3nc4[nH]c(O[C@@H]5CO[C@H]6[C@@H]5OC[C@H]6O)nc4cc3Cl)cc2)cc1F [Example 3, ({4-[4-(2-{[(3R,3aR,6R,6aR)-6-Hydroxy-hexahydrofuro[3,2-b]furan-3-yl]oxy}-6-chloro-3H-imidazo[4,5-b]pyridin-5-yl)phenyl]-2,5-difluorophenyl}imino)dimethyl-λ^6-sulfanone] |
| 540 | 0.284 | CS(C)(=O)=Nc1ccc(-c2ccc(-c3nc4[nH]c(O[C@@H]5CO[C@H]6[C@@H]5OC[C@H]6O)nc4cc3Cl)cc2)cc1F [Example 1, ({4-[4-(2-{[(3R,3aR,6R,6aR)-6-Hydroxy-hexahydrofuro[3,2-b]furan-3-yl]oxy}-6-chloro-3H-imidazo[4,5-b]pyridin-5-yl)phenyl]-2-fluorophenyl}imino)dimethyl-λ^6-sulfanone] |
| 490 | 0.45 | CS(C)(=O)=Nc1ccc(-c2ccc(-c3nc4[nH]c(O[C@@H]5CO[C@H]6[C@@H]5OC[C@H]6O)nc4cc3Cl)cc2)c(F)c1F [Example 6, ({4-[4-(2-{[(3R,3aR,6R,6aR)-6-Hydroxy-hexahydrofuro[3,2-b]furan-3-yl]oxy}-6-chloro-3H-imidazo[4,5-b]pyridin-5-yl)phenyl]-2,3-difluorophenyl}imino)dimethyl-λ^6-sulfanone] |
| 496 | 0.115 | CS(C)(=O)=Nc1cc(F)c(-c2ccc(-c3nc4[nH]c(O[C@@H]5CO[C@H]6[C@@H]5OC[C@H]6O)nc4cc3Cl)cc2)c(F)c1 [Example 2, ({4-[4-(2-{[(3R,3aR,6R,6aR)-6-Hydroxy-hexahydrofuro[3,2-b]furan-3-yl]oxy}-6-chloro-3H-imidazo[4,5-b]pyridin-5-yl)phenyl]-3,5-difluorophenyl}imino)dimethyl-λ^6-sulfanone] |
| 479 | 0.193 | CS(C)(=O)=Nc1cnc(-c2ccc(-c3nc4[nH]c(O[C@@H]5CO[C@H]6[C@@H]5OC[C@H]6O)nc4cc3Cl)cc2)c(F)c1 [Example 10, ({6-[4-(2-{[(3R,3aR,6R,6aR)-6-Hydroxy-hexahydrofuro[3,2-b]furan-3-yl]oxy}-6-chloro-3H-imidazo[4,5-b]pyridin-5-yl)phenyl]-5-fluoropyridin-3-yl}imino)dimethyl-λ^6-sulfanone] |

Second part, the compound before the results:

| Compound | Emax [%] | EC50 [µM] |
| --- | --- | --- |
| CS(C)(=O)=Nc1ccc(-c2ccc(-c3nc4[nH]c(O[C@@H]5CO[C@H]6[C@@H]5OC[C@H]6O)nc4cc3Cl)cc2F)cc1 [Example 8, ({4-[4-(2-{[(3R,3aR,6R,6aR)-6-Hydroxy-hexahydrofuro[3,2-b]furan-3-yl]oxy}-6-chloro-3H-imidazo[4,5-b]pyridin-5-yl)-2-fluorophenyl]phenyl}imino)dimethyl-λ^6-sulfanone] | 659 | 0.255 |
| CS(C)(=O)=Nc1ccc(-c2ccc(-c3nc4nc(O[C@@H]5CO[C@H]6[C@@H]5OC[C@H]6O)[nH]c4cc3F)cc2)c(F)c1 [Example 14, ({4-[4-(2-{[(3R,3aR,6R,6aR)-6-Hydroxy-hexahydrofuro[3,2-b]furan-3-yl]oxy}-6-fluoro-1H-imidazo[4,5-b]pyridin-5-yl)phenyl]-3-fluorophenyl}imino)dimethyl-λ^6-sulfanone] | 484 | 0.068 |
| CS(C)(=O)=Nc1ccc(-c2ccc(-c3nc4[nH]c(O[C@@H]5CO[C@H]6[C@@H]5OC[C@H]6O)nc4cc3Cl)c(F)c2)cc1 [Example 7, ({4-[4-(2-{[(3R,3aR,6R,6aR)-6-Hydroxy-hexahydrofuro[3,2-b]furan-3-yl]oxy}-6-chloro-3H-imidazo[4,5-b]pyridin-5-yl)-3-fluorophenyl]phenyl}imino)dimethyl-λ^6-sulfanone] | 640 | 0.125 |
| CS(=N)(=O)c1ccc(-c2ccc(-c3nc4[nH]c(O[C@@H]5CO[C@H]6[C@@H]5OC[C@H]6O)nc4cc3Cl)cc2)c(F)c1 (stereo partly drawn) [Example 13, {4-[4-(2-{[(3R,3aR,6R,6aR)-6-Hydroxy-hexahydrofuro[3,2-b]furan-3-yl]oxy}-6-chloro-3H-imidazo[4,5-b]pyridin-5-yl)phenyl]-3-fluorophenyl}(imino)methyl-λ^6-sulfanone] | 523 | – |
| CS(C)(=O)=Nc1ccc(-c2ccc(-c3nc4nc(O[C@@H]5CO[C@H]6[C@@H]5OC[C@H]6O)[nH]c4cc3F)cc2)cc1 [Example 12, ({4-[4-(2-{[(3R,3aR,6R,6aR)-6-Hydroxy-hexahydrofuro[3,2-b]furan-3-yl]oxy}-6-fluoro-1H-imidazo[4,5-b]pyridin-5-yl)phenyl]phenyl}imino)dimethyl-λ^6-sulfanone] | 608 | 0.109 |
| CS(C)(=O)=Nc1ccc(-c2ccc(-c3nc4[nH]c(O[C@@H]5CO[C@H]6[C@@H]5OC[C@H]6O)nc4cc3Cl)cc2)c(F)c1 [Example 5, ({4-[4-(2-{[(3R,3aR,6R,6aR)-6-Hydroxy-hexahydrofuro[3,2-b]furan-3-yl]oxy}-6-chloro-3H-imidazo[4,5-b]pyridin-5-yl)phenyl]-3-fluorophenyl}imino)dimethyl-λ^6-sulfanone] | 538 | 0.06 |
| CS(C)(=O)=Nc1ccc(-c2ccc(-c3nc4[nH]c(O[C@@H]5CO[C@H]6[C@@H]5OC[C@H]6O)nc4cc3Cl)c(F)c2F)cc1 [Example 9, ({4-[4-(2-{[(3R,3aR,6R,6aR)-6-Hydroxy-hexahydrofuro[3,2-b]furan-3-yl]oxy}-6-chloro-3H-imidazo[4,5-b]pyridin-5-yl)-2,3-difluorophenyl]phenyl}imino)dimethyl-λ^6-sulfanone] | 700 | 0.282 |
| CS(C)(=O)=Nc1ccc(-c2cc(F)c(-c3nc4nc(O[C@@H]5CO[C@H]6[C@@H]5OC[C@H]6O)[nH]c4cc3F)c(F)c2)cc1 [Example 16, ({4-[4-(2-{[(3R,3aR,6R,6aR)-6-Hydroxy-hexahydrofuro[3,2-b]furan-3-yl]oxy}-6-fluoro-1H-imidazo[4,5-b]pyridin-5-yl)-3,5-difluorophenyl]phenyl}imino)dimethyl-λ^6-sulfanone] | 475 | 0.074 |
| COc1nc(-c2ccc(N=S(C)(C)=O)cc2)ccc1-c1nc2[nH]c(O[C@@H]3CO[C@H]4[C@@H]3OC[C@H]4O)nc2cc1Cl [Example 11, ({4-[5-(2-{[(3R,3aR,6R,6aR)-6-Hydroxy-hexahydrofuro[3,2-b]furan-3-yl]oxy}-6-chloro-3H-imidazo[4,5-b]pyridin-5-yl)-6-methoxypyridin-2-yl]phenyl}imino)dimethyl-λ^6-sulfanone] | 423 | 1.2 |
| CS(C)(=O)=Nc1ccc(-c2cc(F)c(-c3nc4nc(O[C@@H]5CO[C@H]6[C@@H]5OC[C@H]6O)[nH]c4cc3Cl)c(F)c2)cc1 [Example 17, ({4-[4-(2-{[(3R,3aR,6R,6aR)-6-Hydroxy-hexahydrofuro[3,2-b]furan-3-yl]oxy}-6-chloro-1H-imidazo[4,5-b]pyridin-5-yl)-3,5-difluorophenyl]phenyl}imino)dimethyl-λ^6-sulfanone] | 475 | 0.084 |
| COc1nc(-c2ccc(N=S(C)(C)=O)cc2F)ccc1-c1nc2[nH]c(O[C@@H]3CO[C@H]4[C@@H]3OC[C@H]4O)nc2cc1Cl [Example 15, ({4-[5-(2-{[(3R,3aR,6R,6aR)-6-Hydroxy-hexahydrofuro[3,2-b]furan-3-yl]oxy}-6-chloro-3H-imidazo[4,5-b]pyridin-5-yl)-6-methoxypyridin-2-yl]-3-fluorophenyl}imino)dimethyl-λ^6-sulfanone] | 426 | 0.344 |
